From patent publication US20070027150A1 (priority 2005, published 2007)

molecular target: His-tagged N-terminal ATP binding domain (amino acid residues 9-236) of HSP90α (Homo sapiens, UniProt P07900); test: HSP90 inhibitor binding potency: TRF competition binding assay; conditions: Table I; read-out: Hsp90 IC50 Range
Protocol: HSP90 Inhibitor Binding Potency: TRF Binding Assay
In this example, the binding potency of HSP90 inhibitors as measured by a TRF binding assay is described.
TRF competition binding assays were performed to determine the binding potency (IC50 values) of HSP90 inhibitors. Purified His-tagged N-terminal ATP binding domain (amino acid residues 9-236) of HSP90α (HSP90α GeneID: 3320; mRNA Sequence NM_005348) was incubated for two hours at room temperature in binding buffer (50 mM HEPES, 6 mM MgCl2, 20 mM KCl and 0.1% BSA) with biotinylated radicicol and progressively higher concentrations of the competing compounds. A fraction of the mixture was transferred to capture plates (coated with streptavidin) and incubated for one hour at room temperature. After washing with DELFIA wash buffer, europium-labeled anti-his antibody was added and incubated for two hours at room temperature, followed by washing with DELFIA buffer. DELFIA enhancement solution was then added. After gentle shaking for 10 minutes, the plates were read in VICTOR for europium counts.

Compound	IC50 [nM]
Cc1nc(N)nc2c1C(=O)CC(c1ccc(Cl)cc1)C2 (stereo not drawn) [Compound 3, 2-amino-7-(4-chlorophenyl)-4-methyl-7,8-dihydroquinazolin-5(6H)-one]	< 1000
Cc1nc(N)nc2c1C(=O)CC(c1cccnc1Cl)C2 (stereo not drawn) [Compound 4, 2-amino-7-(2-chloropyridin-3-yl)-4-methyl-7,8-dihydroquinazolin-5(6H)-one]	> 10000
COc1cccc(Cl)c1C1CC(=O)c2c(C)nc(N)nc2C1 (stereo not drawn) [Compound 5, 2-amino-7-(2-chloro-6-methoxy-phenyl)-4-methyl-7,8-dihydro-6H-quinazolin-5-one]	1000 to 10000
Cc1nc(N)nc2c1C(=O)CC(c1cccc(Br)c1)C2 (stereo not drawn) [Compound 7, 2-amino-7-(3-bromophenyl)-4-methyl-7,8-dihydroquinazolin-5(6H)-one]	1000 to 10000
Cc1nc(N)nc2c1C(=O)CC(c1c(Br)cnn1C)C2 (stereo not drawn) [Compound 10, 2-amino-7-(4-bromo-2-methyl-2H-pyrazol-3-yl)-4-methyl-7,8-dihydro-6H-quinazolin-5-one]	> 10000
Cc1nc(N)nc2c1C(=O)CC(c1nn(C)cc1Br)C2 (stereo not drawn) [Compound 11, 2-amino-7-(4-bromo-1-methyl-1H-pyrazol-3-yl)-4-methyl-7,8-dihydro-6H-quinazolin-5-one]	> 10000
Cc1nc(N)nc2c1C(=O)CC(c1ccccc1N1CCOCC1)C2 (stereo not drawn) [Compound 13, 2-amino-4-methyl-7-(2-morpholin-4-yl-phenyl)-7,8-dihydro-6H-quinazolin-5-one]	< 1000
Cc1nc(N)nc2c1C(=O)CC(c1ccccc1Cc1ccccc1)C2 (stereo not drawn) [Compound 14, 2-amino-7-(2-benzyl-phenyl)-4-methyl-7,8-dihydro-6H-quinazolin-5-one]	< 1000
Cc1nc(N)nc2c1C(=O)CC(c1ccc(F)cc1Br)C2 (stereo not drawn) [Compound 16, 2-amino-7-(2-bromo-4-fluoro-phenyl)-4-methyl-7,8-dihydro-6H-quinazolin-5-one]	< 1000
Cc1nc(N)nc2c1C(=O)CC(c1ccccc1OC1CCCCC1)C2 (stereo not drawn) [Compound 17, 2-amino-7-[2-(cyclohexyloxy)phenyl]-4-methyl-7,8-dihydroquinazolin-5(6H)-one]	< 1000
Cc1cccc(C2CC(=O)c3c(C)nc(N)nc3C2)c1-c1cccnc1F (stereo not drawn) [Compound 19, 2-amino-7-[2-(2-fluoropyridin-3-yl)-3-methylphenyl]-4-methyl-7,8-dihydroquinazolin-5(6H)-one]	1000 to 10000
Cc1cnc(Oc2ccccc2C2CC(=O)c3c(C)nc(N)nc3C2)s1 (stereo not drawn) [Compound 21, 2-amino-4-methyl-7-[2-(5-methyl-thiazol-2-yloxy)-phenyl]-7,8-dihydro-6H-quinazolin-5-one]	< 1000
COc1cccc(Oc2ccccc2)c1C1CC(=O)c2c(C)nc(N)nc2C1 (stereo not drawn) [Compound 22, 2-amino-7-(2-methoxy-6-phenoxyphenyl)-4-methyl-7,8-dihydroquinazolin-5(6H)-one]	1000 to 10000
Cc1nc(N)nc2c1C(=O)CC(c1ccccc1-c1ccccn1)C2 (stereo not drawn) [Compound 25, 2-amino-4-methyl-7-(2-pyridin-2-ylphenyl)-7,8-dihydroquinazolin-5(6H)-one]	< 1000
Cc1nc(N)nc2c1C(=O)CC(c1ccccc1-c1ccncc1)C2 (stereo not drawn) [Compound 27, 2-amino-4-methyl-7-(2-pyridin-4-ylphenyl)-7,8-dihydroquinazolin-5(6H)-one]	1000 to 10000
Cc1nc(N)nc2c1C(=O)CC(c1cccc(-c3ccccn3)c1)C2 (stereo not drawn) [Compound 28, 2-amino-4-methyl-7-(3-pyridin-2-ylphenyl)-7,8-dihydroquinazolin-5(6H)-one]	> 10000
Cc1nc(N)nc2c1C(=O)CC(c1cccc(-c3cccnc3)c1)C2 (stereo not drawn) [Compound 29, 2-amino-4-methyl-7-(3-pyridin-3-ylphenyl)-7,8-dihydroquinazolin-5(6H)-one]	> 10000
Cc1nc(N)nc2c1C(=O)CC(c1cccc(-c3ccncc3)c1)C2 (stereo not drawn) [Compound 30, 2-amino-4-methyl-7-(3-pyridin-4-ylphenyl)-7,8-dihydroquinazolin-5(6H)-one]	> 10000
Cc1nc(N)nc2c1C(=O)CC(c1ccccc1-c1cnccn1)C2 (stereo not drawn) [Compound 31, 2-amino-4-methyl-7-(2-pyrazin-2-ylphenyl)-7,8-dihydroquinazolin-5(6H)-one]	< 1000
Cc1nc(N)nc2c1C(=O)CC(c1cccnc1-c1ccccn1)C2 (stereo not drawn) [Compound 33, 2-amino-7-(2,2′-bipyridin-3-yl)-4-methyl-7,8-dihydroquinazolin-5(6H)-one]	1000 to 10000

More lines, now with the values ahead:

IC50 [nM]	Compound
> 10000	Cc1nc(N)nc2c1C(=O)CC(C(C)C)C2 (stereo not drawn) [Compound 1, 2-amino-7-isopropyl-4-methyl-7,8-dihydroquinazolin-5(6H)-one]
1000 to 10000	COc1ccc(C2CC(=O)c3c(C)nc(N)nc3C2)cc1 (stereo not drawn) [Compound 2, 2-amino-7-(4-methoxyphenyl)-4-methyl-7,8-dihydroquinazolin-5(6H)-one]
1000 to 10000	Cc1nc(N)nc2c1C(=O)CC(c1ccc(Cl)cc1Cl)C2 (stereo not drawn) [Compound 6, 2-amino-7-(2,4-dichlorophenyl)-4-methyl-7,8-dihydroquinazolin-5(6H)-one]
1000 to 10000	Cc1nc(N)nc2c1C(=O)CC(c1ccccc1Br)C2 (stereo not drawn) [Compound 8, 2-amino-7-(2-bromophenyl)-4-methyl-7,8-dihydroquinazolin-5(6H)-one]
< 1000	Cc1nc(N)nc2c1C(=O)CC(c1nccn1Cc1ccccc1)C2 (stereo not drawn) [Compound 9, 2-amino-7-(1-benzyl-1H-imidazol-2-yl)-4-methyl-7,8-dihydro-6H-quinazolin-5-one]
< 1000	Cc1nc(N)nc2c1C(=O)CC(c1ccccc1N1CCCCC1)C2 (stereo not drawn) [Compound 12, 2-amino-4-methyl-7-(2-piperidin-1-yl-phenyl)-7,8-dihydro-6H-quinazolin-5-one]
1000 to 10000	Cc1cccc(C2CC(=O)c3c(C)nc(N)nc3C2)c1-c1ccccc1 (stereo not drawn) [Compound 15, 2-amino-4-methyl-7-(6-methyl-1,1′-biphenyl-2-yl)-7,8-dihydroquinazolin-5(6H)-one]
1000 to 10000	COc1cccc(Br)c1C1CC(=O)c2c(C)nc(N)nc2C1 (stereo not drawn) [Compound 18, 2-amino-7-(2-bromo-6-methoxy-phenyl)-4-methyl-7,8-dihydro-6H-quinazolin-5-one]
> 10000	COc1cccc(C2CCCCC2)c1C1CC(=O)c2c(C)nc(N)nc2C1 (stereo not drawn) [Compound 20, 2-amino-7-(2-cyclohexyl-6-methoxyphenyl)-4-methyl-7,8-dihydroquinazolin-5(6H)-one]
> 10000	Cc1nc(N)nc2c1C(=O)CC(c1ccccc1S(=O)(=O)c1ccccc1)C2 (stereo not drawn) [Compound 23, 2-amino-7-(2-benzenesulfonyl-phenyl)-4-methyl-7,8-dihydro-6H-quinazolin-5-one]
< 1000	Cc1nc(N)nc2c1C(=O)CC(c1cnccc1Oc1ccccc1)C2 (stereo not drawn) [Compound 24, 2-Amino-4-methyl-7-(4-phenoxy-pyridin-3-yl)-7,8-dihydro-6H-quinazolin-5-one]
< 1000	Cc1nc(N)nc2c1C(=O)CC(c1ccccc1-c1cccnc1)C2 (stereo not drawn) [Compound 26, 2-amino-4-methyl-7-(2-pyridin-3-ylphenyl)-7,8-dihydroquinazolin-5(6H)-one]
< 1000	Cc1nc(N)nc2c1C(=O)CC(c1ccccc1-c1ncccn1)C2 (stereo not drawn) [Compound 32, 2-amino-4-methyl-7-(2-pyrimidin-2-ylphenyl)-7,8-dihydroquinazolin-5(6H)-one]
